From US4728650A, “3,4-dihydrobenzopyran derivatives and medicinal uses thereof” (Kuraray Co., Ltd., priority 1985, dated 1988)
Structures can show the parent of a compound that is named as a salt.

Tests used:
[1] = Hydrochloric acid-ethanol-induced ulcer in rats; format: in vivo, Wistar rats (male)
Protocol: Male Wistar rats (body weights, 170-210 g) were used in groups of 6 to 8 animals. Indomethacin, 20 mg/kg body weight, was injected subcutaneously to rats which had been deprived of food for 24 hours. After 7 hours, the stomach was excised under ether anesthesia. A 10% aqueous solution of formaldehyde was infused into the stomach until the stomach was inflated and, then, the stomach was immersed in a 10% aqueous solution of formaldehyde for 10 minutes for fixation of the tissue. After fixation, an incision was made along the greater curvature and the length of ulcers occurring in the glandular portion of the stomach was measured. The total length of ulcers occurring in a rat was taken as an ulcer index. Each test compound was orally administered, as suspended in a gum arabic solution in concentration of 5%, to rats 10 minutes before subcutaneous injection of indomethacin. Male Wistar rats (body weights, 160-190 g) were used in groups of 6 to 8 animals. One milliliter of a 60% aqueous solution of ethanol containing 150 mM hydrochloric acid was administered orally to rats which had been deprived of food for 24 hours. After one hour, the stomach was excised under ether anesthesia. In a manner similar to that described in study for indomethacin-induced ulcer, the ulcer index was determined. Each test compound was orally administered, as suspended in a gum arabic solution in concentration of 5%, to rats 1 hour before administration of hydrochloric acid-ethanol.

[2] = Expectorant action: tracheal secretion of fluorescein sodium in rats; format: in vivo, Wistar rats (male); conditions: 50 mg/kg oral
Protocol: Male Wistar rats (body weights, 280-320 g) were used in groups of 7 animals. Each test compound was orally administered in dose of 50 mg/kg body weight to rats. Immediately after administration, 0.3 ml/100 g (body weight of rat) of a 1% aqueous solution of fluorescein sodium was injected into the caudal vein. One hour after administration of the test compound, pentobarbital sodium 100 mg/kg (body weight of rat) was injected intraperitoneally so that deep anesthesia might cause the rat to die. Then, the trachea was exposed and an incision was made in the trachea. A sonde was inserted thereinto and ligation was made. To the sonde was connected a syringe containing 10 ml of a 5% solution of sodium hydrogen carbonate kept at 37° C. and 4 ml of the solution of sodium hydrogen carbonate was injected into the lung. After 5 minutes, the fluid in the lung was removed. After this procedure of injection and removal was repeated three times, the fluid removed from the lung was filtered and the filtrate was made up with water to make 20 ml. The intensity of fluroescence was determined at the excitation wave length of 491 nm and the fluorescence wave length of 510 nm using a spectrophotometer (HITACHI model 650-10, Hitachi, Ltd.). The amount of fluorescein sodium secreted into the trachea was estimated from the intensity of fluorescence. Each test compound was administered as suspended in a gum arabic solution in concentration of 5%.

[3] = Stress ulcer (water immersion stress) in mice; format: in vivo, mice (ddK strain, male)
Protocol: Male mice of ddK strain (body weights, 18-20 g) were placed in a stress cage in groups of 6 animals and immersed down to the level of the xiphoid process in a water bath at 22±1° C. to give a stress. Five hours later the mice were raised from the water bath and the stomach was removed under ether anesthesia. Into the stomach was infused 1.2 ml of a 10% aqueous solution of formaldehyde and, then, the stomach was immersed in a 10% aqueous solution of formaldehyde for 10 minutes for fixation of the tissue. After fixation, an incision was made along the greater curvature for observing ulcers which had appeared in the glandular portion of the stomach. The degree of ulceration was classified according to the following ulcer index scale and the % inhibition of ulcer was estimated.
2: Hemorrhage and erosion
3: Severe hemorrhage and erosion
Each test compound was orally administered, as suspended in a gum arabic solution in concentration of 5%, to mice 10 minutes before stress loading.

[4] = Pyloric ligation-induced ulcer (Shay ulcer) in rats; format: in vivo, Wistar rats (male); conditions: Table 2, 200 mg/kg i.d.
Protocol: Male Wistar rats (body weights, 180-200 g) were used in groups of 7 animals. After 48-hour fasting, laparotomy was performed under ether anesthesia and the pylorus was ligated with a suture. After 13 hours, the stomach was isolated under ether anesthesia and gastric juice was collected. The gastric juice was centrifuged at 3,000 r.p.m. for 10 minutes and the volume and pH value of gastric juice were determined. The pH value was determined by using pH paper. After collection of gastric juice, a 10% aqueous solution of formaldehyde was infused into the stomach until the stomach was inflated. Then, the stomach was immersed in a 10% aqueous solution of formaldehyde for 10 minutes for fixation of the tissue. After fixation, an incision was made along the greater curvature for observing ulcers which had developed in the glandular portion of the stomach. The degree of ulcer was classified according to the following ulcer index scale.
2: 1-5 small ulcers (<3 mm in diameter)
3: Six or more small ulcers or one large ulcer (>3 mm in diameter)
4: Two or more large ulcers
Each test compound was administered, as suspended in a gum arabic solution in concentration of 5%, into the duodenum immediately after pyloric ligation.

[5] = Indomethacin-induced ulcer in rats; format: in vivo, Wistar rats (male); conditions: Table 3, 200 mg/kg p.o.
Protocol: Male Wistar rats (body weights, 170-210 g) were used in groups of 6 to 8 animals. Indomethacin, 20 mg/kg body weight, was injected subcutaneously to rats which had been deprived of food for 24 hours. After 7 hours, the stomach was excised under ether anesthesia. A 10% aqueous solution of formaldehyde was infused into the stomach until the stomach was inflated and, then, the stomach was immersed in a 10% aqueous solution of formaldehyde for 10 minutes for fixation of the tissue. After fixation, an incision was made along the greater curvature and the length of ulcers occurring in the glandular portion of the stomach was measured. The total length of ulcers occurring in a rat was taken as an ulcer index. Each test compound was orally administered, as suspended in a gum arabic solution in concentration of 5%, to rats 10 minutes before subcutaneous injection of indomethacin. The doses of test compounds and the ulcer indices for treated and untreated rats are shown in Table 3 for purposes of comparison. The % inhibition of ulcer by each test compound as estimated from the ulcer index is also presented in the same table.

[6] = Table 16, control 6.455 ± 0.766

In the case of COc1ccc(CN2CCN(CCC3(C)CCc4c(C)c(OC)c(C)c(C)c4O3)CC2)c(OC)c1OC (stereo not drawn) [Compound (31), 1-[2-(3,4-Dihydro-6-methoxy-2,5,7,8-tetramethyl-2H-benzopyran-2-yl)ethyl]-4-(2,3,4-trimethoxybenzyl)piperazine], the inhibition in vivo at 50 mg/kg ([1]; Rattus norvegicus, po, 1 h, Table 11, 50 mg/kg p.o.) is reported as 100%, the “Ulcer index (mean ± S.E.)” value ([1]; Table 11, 50 mg/kg p.o., control 6.12 ± 1.76) is reported as 0.00 ± 0.00 mm and the “Secretory amount (mean ± S.E.)” value [2, 6] is reported as 7.529 ± 0.751 μg/100 g (body weight of rat)/.

In the case of COc1ccc(CN2CCN(C(=O)C3(C)CCc4c(C)c(OC)c(C)c(C)c4O3)CC2)c(OC)c1OC (stereo not drawn) [Compound (30), 1-[(3,4-Dihydro-6-methoxy-2,5,7,8-tetramethyl-2H-benzopyran-2-yl)carbonyl]-4-(2,3,4-trimethoxybenzyl)piperazine], the “Secretory amount (mean ± S.E.)” value ([2]; Table 13, control 5.30 ± 0.40) is reported as 5.45 ± 0.54 μg/100 g (body weight of rat)/.

For COc1ccc(CN2CCN(C(=O)CC3(C)CCc4c(C)c(OC)c(C)c(C)c4O3)CC2)c(OC)c1OC (stereo not drawn) [Compound (28), 1-[(3,4-Dihydro-6-methoxy-2,5,7,8-tetramethyl-2H-benzopyran-2-yl)acetyl]-4-(2,3,4-trimethoxybenzyl)piperazine], the “Secretory amount (mean ± S.E.)” value ([2]; Table 14, control 1.60 ± 0.18) was 3.28 ± 0.31 μg/100 g (body weight of rat)/.

In the case of COc1ccc(C(=O)N2CCN(CCCC3(C)CCc4c(C)c(OC)c(C)c(C)c4O3)CC2)cc1 (stereo not drawn) [Compound (27), 1-[3-(3,4-Dihydro-6-methoxy-2,5,7,8-tetramethyl-2H-benzopyran-2-yl)propyl]-4-(4-methoxybenzoyl)piperazine], the “Secretory amount (mean ± S.E.)” value ([2]; Table 15, control 5.20 ± 0.78) is reported as 6.45 ± 0.72 μg/100 g (body weight of rat)/.

For COc1c(C)c(C)c2c(c1C)CCC(C)(CCN1CCN(CCO)CC1)O2 (stereo not drawn) [Compound (35), 1-[2-(3,4-Dihydro-6-methoxy-2,5,7,8-tetramethyl-2H-benzopyran-2-yl)ethyl]-4-(2-hydroxyethyl)piperazine], the “Secretory amount (mean ± S.E.)” value [2, 6] was 10.297 ± 1.841 μg/100 g (body weight of rat)/.

With COc1c(C)c(C)c2c(c1C)CCC(C)(CCN1CCN(C(=O)c3ccc(N(C)C)cc3)CC1)O2 (stereo not drawn) [Compound (20), 1-[2-(3,4-Dihydro-6-methoxy-2,5,7,8-tetramethyl-2H-benzopyran-2-yl)ethyl]-4-(4-dimethylaminobenzoyl)piperazine] the “Secretory amount (mean ± S.E.)” value ([2]; Table 15, control 5.20 ± 0.78) was 8.72 ± 1.45 μg/100 g (body weight of rat)/.

With CN1[C@@H]2CC[C@H]1C[C@@H](OC(=O)C(CO)c1ccccc1)C2 (stereo partly drawn) [Atropine sulfate] the “% Inhibition of ulcer” value ([3]; Table 1, 30 mg/kg p.o.) was 80.99% and the “Ulcer index (mean ± S.E.)” value ([3]; Table 1, 30 mg/kg p.o., control 2.63 ± 0.18) was 0.50 ± 0.29 mm.

For COc1c(C)c(C)c2c(c1C)CCC(C)(CCN1CCN(C(=O)c3ccccc3)CC1)O2 (stereo not drawn) [Compound (32), 1-Benzoyl-4-[2-(3,4-dihydro-6-methoxy-2,5,7,8-tetramethyl-2H-benzopyran-2-yl)ethyl]piperazine], the “Secretory amount (mean ± S.E.)” value ([2]; Table 13, control 5.30 ± 0.40) was 5.43 ± 0.72 μg/100 g (body weight of rat)/.

In the case of COc1c(C)c(C)c2c(c1C)CCC(C)(CCN1CCN(C(=O)c3ccncc3)CC1)O2 (stereo not drawn) [Compound (23), 1-[2-(3,4-Dihydro-6-methoxy-2,5,7,8-tetramethyl-2H-benzopyran-2-yl)ethyl]-4-(4-pyridylcarbonyl)piperazine], the “Secretory amount (mean ± S.E.)” value ([2]; Table 15, control 5.20 ± 0.78) is reported as 8.16 ± 1.03 μg/100 g (body weight of rat)/.

With COc1ccc(CN2CCN(C(=O)CC3(C)CCc4cc(Cl)ccc4O3)CC2)c(OC)c1OC (stereo not drawn) [Compound (29), 1-[(6-Chloro-3,4-dihydro-2-methyl-2H-benzopyran-2-yl)acetyl]-4-(2,3,4-trimethoxybenzyl)piperazine] the “Secretory amount (mean ± S.E.)” value ([2]; Table 13, control 5.30 ± 0.40) was 5.57 ± 0.36 μg/100 g (body weight of rat)/.

With COc1c(C)c(C)c2c(c1C)CCC(C)(CCN1CCN(C(=O)c3ccc(Br)cc3)CC1)O2 (stereo not drawn) [Compound (22), 1-[2-(3,4-Dihydro-6-methoxy-2,5,7,8-tetramethyl-2H-benzopyran-2-yl)ethyl]-4-(4-bromobenzoyl)piperazine] the “Secretory amount (mean ± S.E.)” value ([2]; Table 15, control 5.20 ± 0.78) was 6.26 ± 0.32 μg/100 g (body weight of rat)/.

In the case of CNC(=NC#N)NCCSCc1nc[nH]c1C [Cimetidine, N"-cyano-N-methyl-N'-[2-[(5-methyl-1H-imidazol-4-yl)methylthio]ethyl]guanidine, reference compound], the inhibition in vivo at 200 mg/kg ([1]; Rattus norvegicus, po, 1 h, Table 7, 200 mg/kg p.o.) is reported as 77.9%, the inhibition in vivo at 200 mg/kg ([1]; Rattus norvegicus, po, 1 h, Table 12, 200 mg/kg p.o.) is reported as 78% and the “Ulcer index (mean ± S.E.)” value ([1]; Table 4, 200 mg/kg p.o., control 7.36 ± 1.23) is reported as 1.63 ± 0.49 mm. For the same compound, the “Ulcer index (mean ± S.E.)” value ([1]; Table 12, 200 mg/kg p.o., control 9.93 ± 0.91) was 2.18 ± 1.04 mm, the “pH value of gastric juice” value ([4]; control 1.77 ± 0.54) was 2.29 ± 0.88 and the “Volume of gastric juice” value ([4]; control 5.09 ± 0.40) was 5.13 ± 0.99 ml/100 g body weight. The “Ulcer index (mean ± S.E.)” value ([4]; scale 0-5, control 3.86 ± 0.40) was 1.71 ± 0.18, the “% Inhibition of ulcer” value [5] was 86.97% and the “Ulcer index (mean ± S.E.)” value ([5]; control 10.36 ± 2.07) was 1.35 ± 0.48 mm. For the same compound, the “% Inhibition of ulcer” value ([3]; mouse, in vivo, po, 200 mg/kg) was 49.43% and the “Ulcer index (mean ± S.E.)” value ([3]; mouse, in vivo, po, 200 mg/kg) was 1.33 ± 0.21 mm.

With COc1c(C)c(C)c2c(c1C)CCC(C)(CCN1CCN(C(=O)c3ccc([N+](=O)[O-])cc3)CC1)O2 (stereo not drawn) [Compound (21), 1-[2-(3,4-Dihydro-6-methoxy-2,5,7,8-tetramethyl-2H-benzopyran-2-yl)ethyl]-4-(4-nitrobenzoyl)piperazine] the “Secretory amount (mean ± S.E.)” value ([2]; Table 15, control 5.20 ± 0.78) was 5.89 ± 0.40 μg/100 g (body weight of rat)/.

In the case of COc1ccc2c(c1)OC(C)(CCN1CCN(C(=O)c3cc(OC)c(OC)c(OC)c3)CC1)CC2 (stereo not drawn) [Compound (25), 1-[2-(3,4-Dihydro-7-methoxy-2-methyl-2H-benzopyran-2-yl)ethyl]-4-(3,4,5-trimethoxybenzoyl)piperazine], the “Secretory amount (mean ± S.E.)” value ([2]; Table 14, control 1.60 ± 0.18) is reported as 3.08 ± 0.19 μg/100 g (body weight of rat)/.
